Test results taken from patent US20230256094A1, “CANCER RADIOSENSITIZATION BY IN SITU FORMATION OF GOLD NANOPARTICLES AND/OR GOLD NANOCLUSTERS” (BOARD OF REGENTS, THE UNIVERSITY OF TEXAS SYSTEM, priority 2020, published 2023).

Legend:
[1] = test system: 3T3 mouse fibroblast cells; test: MTS assay of radiosensitization after X-ray irradiation; format: cell-based; conditions: 1 mM, 10 hours; X-rays at 4 and 6 Gy
Procedure: Our initial evaluation of radiosensitization via intracellular GNP formation was performed with 3T3 mouse fibroblast cells. […] Radiosensitization with intracellular GNC formation (i.e., delivery of Au^3+) was compared with pre-fabricated albumin-coated GNCs (Albumin-GNC) prepared according to work by Xie^46 and control cells without treatment via MTS assay (FIG. 3B).
3T3 cells were first incubated with either 1 mM of sodium chloroaurate or albumin-GNCs (0.1 mM Au^0)in cell culture media for 10 hours. Then, the cells including the nontreated control were irradiated with X-rays at dosages of 0, 4 and 6 Gy in the X-ray X-RAD 225 CX irradiator system (Precision).
In our future studies we will use a standard clonogenic survival assay for quantitation of the radiosensitization effect.

[2] = test system: pancreatic cancer cells (MIAPACA2); test: Confocal fluorescence imaging of in situ GNC synthesis; format: cell-based, human
Procedure: FIG. 4 presents fluorescence confocal images of non-cancerous (HPDE) and cancerous (MIAPaCa2) pancreatic cells treated with either 1 mM of Au^3+ gold ions or premade albumin-GNCs at 1 mM Au^0 for 24 hours. (From left to right) Cells: untreated; treated with albumin-GNCs; treated with Au^3+ gold ions. […] The strong red fluorescence in cancer cells indicated intracellular synthesis of GNCs from gold ions. Scale bars are 25 μm.
We compared in situ synthesis of GNCs by pancreatic cancer cells (MIAPACA2) and pancreatic noncancerous cells (HPDE) (FIG. 4). Confocal fluorescence images were obtained using a Leica TCS SP8 confocal microscope with 561 nm excitation and 610 nm emission optimized for detection of GNCs.

[3] = test system: pancreatic cancer; conditions: in combination with SBRT; cited from earlier work

Row | Compound | radiosensitization by in situ synthetized GNCs as compared to Albumin-GNC control (MTS) [1] | intracellular distribution of fluorescence from GNCs ([2]; MIAPACA2, optical sectioning) | GNC fluorescence / GNC formation ([2]; MIAPACA2, 1 mM, 24 hours, 561 nm excitation, 610 nm emission) | overall survival (OS) [3]
1 | [Cl][Au-]([Cl])([Cl])[Cl].[Na+] [sodium chloroaurate] | significant increase in radiosensitization | uniformly distributed throughout the intracellular space with a significant fraction in nuclei | striking increase in GNC formation | –
2 | Nc1ccn([C@@H]2O[C@H](CO)[C@@H](O)C2(F)F)c(=O)n1 [gemcitabine] | – | – | – | 13.9 months
